Molecular target: potassium channels (Sus scrofa, UniProt F1SR11)
Test: Functional potassium channel opening activity in isolated Landrace pig bladder strips (field-stimulated twitch)
Conditions: for Landrace Pig Bladder Index: ED50 for P1075 divided by ED50 for the test agonist, averaged over tissues; for Landrace Pig Bladder pD2: negative logarithm of ED50; for Emax: pig; for Emax / Landrace Pig Bladder Efficacy (% P1075): maximal efficacy relative to P1075, field stimulation 0.05Hz, 0.5 milli-seconds at 20 volts
Procedure: The entire bladder was removed and ed into Krebs Ringer bicarbonate solution (composition, mM: NaCl,; dextrose, 1; KCl, 4.7; […] Propranolol (0.004 ed in all of the assays to block […]. The trigonal and dome […]. Strips 3-5 mm wide and 20 mm long were prepared from the cut in a circular fashion. The mucosal layer was removed. One end ationary glass rod and the other to a Grass FT03 transducer at a basal am. Two parallel platinum electrodes were included in the stationary ide field stimulation of 0.05Hz, 0.5 milli-seconds at 20 volts. […] Tissues were allowed to equilibrate for at least 60 minutes and primed with 80 mM KCl. A control concentration response curve (cumulative) was generated for each tissue using the potassium channel opener […] as the control agonist. […] After a 60 minute rinsing period, a concentration response curve (cumulative) was generated for the test agonist in the same fashion as that used for the control agonist […]. The maximal efficacy of each compound (expressed as % relative to […]) is reported. […] J. Physiol. 235, E97 (1980)), and agonist potencies were expressed as pD2 (the negative logarithm). Agonist potencies were also expressed as an index relative to […]. The index was calculated by dividing the ED50 for […] by the ED50 for the test agonist in a given tissue. Each tissue was used for only one test agonist, and the indices obtained from each tissue were averaged to provide an average index of potency.

SMILES | Landrace Pig Bladder Index | Landrace Pig Bladder pD2 | Emax | Landrace Pig Bladder Efficacy (% P1075)
Cc1ccc(C2C3=C(CCCC3=O)NC3=C2S(=O)(=O)CC3)cc1[N+](=O)[O-] (single isomer, unassigned) [Example 126, 9-(4-methyl-3-nitrophenyl)-2,3 5,6,7,9-hexahydro[3. 2-b]guinolin-8(4H)-one, 1,1-dioxide] | 0.20 | 6.3 | 99% | 
O=S1(=O)CCC2=C1C(c1ccc(F)c(Br)c1)C=C(C(F)(F)F)N2 (single isomer, unassigned) [Example 136, 7-(3-bromo-4-fluorophenyl)-5-(trifluoromethyl)-2, 3 4 7-tetrahydrothieno[3 2-b]pyridine, 1,1-dioxide] | 0.073 | 5.9 | 92% | 
O=C1CCC2=C1C(c1ccc(Cl)c(Cl)c1)C1=C(CCS1(=O)=O)N2 (single isomer, unassigned) [Example 146] | 0.40 | 6.7 | 100% | 
O=C1CCCC2=C1C(c1ccc(Br)c(Br)c1)C1=C(CCS1(=O)=O)N2 (single isomer, unassigned) [Example 147, 9-(3.4-dibromophenyl)-2,3,5,6,7,,9-hexahydrothieno[3.2-b]quinolin-8(4H)-one, 1,1-dioxide] | 0.24 | 6.2 | 99% | 
O=C1CCCC2=C1C(c1ccc(F)c(I)c1)C1=C(CCS1(=O)=O)N2 (single isomer, unassigned) [Example 149, 9-(4-fluoro-3-iodophenyl)-2,3,5,6,7,9-hexahydrothieno[3 2-b]quinolin-8(4H)-one, 1,1-dioxide] | 1.2 | 6.6 | 80% | 
Cc1ccc(C2C3=C(CCCC3=O)NC3=C2S(=O)(=O)CC3)cc1C#N (single isomer, unassigned) [Example 155, 9-(3-cvano-4-methylphenyl)-2,3 5,6,7,9-hexahydrothieno[3,2-b]guinolin-8(4H)-one, 1,1-dioxide] | 0.026 | 5.4 | 98% | 
O=C1CCC2=C1C(c1ccc(Cl)c([N+](=O)[O-])c1)C1=C(CCS1(=O)=O)N2 (single isomer, unassigned) [Example 161] | 0.23 | 6.3 | 96% | 
O=C1CCCC2=C1C(c1ccc(F)c(-c3ccco3)c1)C1=C(CCS1(=O)=O)N2 (single isomer, unassigned) [Example 165, 9-[4-fluoro-3-(2-fMrIl)phenyl]-2,3,5,6,7,9-hexahydrothieno[3,2-b]quinolin-8(4H)-one, 1,1-dioxide] | 0.035 | 5.8 | 94% | 
O=C1CCCC2=C1C(c1ccc(Br)s1)C1=C(CCS1(=O)=O)N2 (single isomer, unassigned) [Example 167, 9-(5-bromo-2-thienyl)-2,3,5,6,7,9-hexahydrothieno[3,2-b]quinolin-8(4H)-one, 1,1-dioxide] | 0.062 | 5.9 | 100% | 
O=C1CCCC2=C1C(c1cc(Br)cs1)C1=C(CCS1(=O)=O)N2 (single isomer, unassigned) [Example 180, 9-(4-bromo-2-thienyl)-2,3 5,6,7,9-hexahydrothieno[3 2-b]quinolin-8(4H)-one 1,1-dioxide] | 0.036 | 5.5 | 71% | 
O=C1CCC2=C1C(c1ccc(F)c(Br)c1)C1=C(CCCS1(=O)=O)N2 (single isomer, unassigned; (+)) [Example 91] | 0.0034 | 4.6 | 95% | 
O=C1CCCC2=C1C(c1ccc(F)c(Br)c1)C1=C(CCCS1(=O)=O)N2 (single isomer, unassigned; (+)) [Example 93, (+)-I 0-(3-bromo-4-fluorophenyl)-3,4,6,7,8,10-hexahydro-2H-thiopyrano[3 2-b]quinolin-9(5H)-one, 1,1-dioxide] | 0.02 | 5.2 | 100% | 
O=C1CCCC2=C1C(c1ccc(Cl)c(Cl)c1)C1=C(CCS1(=O)=O)N2 (single isomer, unassigned; (+)) [Example 95, (+)-9-(3,4-dichlorophenyl)-2,3,5,6,7,9-hexahydrothieno[3,2-b]quinolin-8(4H)-one, 1,1-dioxide] | 0.12 | 5.6 | 84% | 
O=C1CCCC2=C1C(c1ccc3nonc3c1)C1=C(CCS1(=O)=O)N2 (single isomer, unassigned; (+)) [Example 97, (+)-9-(2. 1,3-benzoxadiazol-5-yl)-2,3,5,6,7,9-hexahydrothieno[3.2-b]quinolin-8(4H)-one, 11-dioxide] | 0.059 | 5.7 | 100% | 
O=C1CCCC2=C1C(c1ccc(Cl)c([N+](=O)[O-])c1)C1=C(CCS1(=O)=O)N2 (single isomer, unassigned; (+)) [Example 99, (+)-9-(4-chloro-3-nitrophenyl)-2,3,5,6,7,9-hexahydrothieno[3.2-b]guinolin-8(4H)-one, 1,1-dioxide] | 0.18 | 6.2 | 100% | 
N#Cc1cccc(C2C3=C(CCC3=O)NC3=C2S(=O)(=O)CC3)c1 (single isomer, unassigned; (+)) [Example 164] | 0.0071 | 5.0 | 94% | 
O=C1CCC2=C1C(c1ccc(F)c(Br)c1)C1=C(CCS1(=O)=O)N2 (single isomer, unassigned; (-)) [Example 86] | 0.069 | 6.5 | 100% | 
O=C1CCC2=C1C(c1ccc(F)c(Br)c1)C1=C(CCCS1(=O)=O)N2 (single isomer, unassigned; (-)) [Example 92] | 0.44 | 6.5 |  | 100 % P1075
O=C1CCCC2=C1C(c1ccc(F)c(Br)c1)C1=C(CCCS1(=O)=O)N2 (single isomer, unassigned; (-)) [Example 94, (−)-10-(3-bromo-4-fluorophenyl)-3,4,6,7,8,10-hexahydro-2H-thiopyrano[3,2-b]quinolin-9(5H)-one 1,1-dioxide] | 0.31 | 6.4 |  | 94 % P1075
O=C1CCCC2=C1C(c1ccc(Cl)c(Cl)c1)C1=C(CCS1(=O)=O)N2 (single isomer, unassigned; (-)) [Example 96, (−)-9-(3,4-dichlorophenyl)-2,3,5,6,7,9-hexahydrothieno[3,2-b]guinolin-8(4H)-one, 1,1-dioxide] | 0.37 | 6.5 |  | 97 % P1075
O=C1CCCC2=C1C(c1ccc3nonc3c1)C1=C(CCS1(=O)=O)N2 (single isomer, unassigned; (-)) [Example 98, (−)-9-(2.1 .3-benzoxadiazol-5-yl)-2,3.5,6.7,9-hexahydrothieno[3.2-b]guinolin-8(4H)-one, 1,1-dioxide] | 0.057 | 5.6 |  | 100 % P1075
O=C1CCCC2=C1C(c1ccc(Cl)c([N+](=O)[O-])c1)C1=C(CCS1(=O)=O)N2 (single isomer, unassigned; (-)) [Example 100, (−)-9-(4-chloro-3-nitrophenyl)-2,3,5,6,7,9-hexahydrothieno[3,2-b]quinolin-8(4H)-one, 1,1-dioxide] | 0.17 | 6.4 |  | 100 % P1075
O=C1CCCC2=C1C(c1ccc(F)c(Cl)c1)C1=C(CCS1(=O)=O)N2 (single isomer, unassigned; (-)) [Example 110, (−)-9-(3-chloro-4-fluorophenyl)-2,3,5,6,7,9-hexahydrothieno[3.2-b]quinolin-8(4H)-one, 1,1-dioxide] | 0.17 | 6.7 |  | 100 % P1075
N#Cc1cccc(C2C3=C(CCCC3=O)NC3=C2S(=O)(=O)CC3)c1 (single isomer, unassigned; (-)) [Example 114, (−)-9-(3-cyanophenyl)-2,3,5,6,7,9-hexahydrothieno[3,2-b]quinolin-8(4H)-one, 1,1-dioxide] | 0.014 | 4.9 | 97% | 
O=C1CCCC2=C1C(c1ccc(F)c(C(F)(F)F)c1)C1=C(CCS1(=O)=O)N2 (single isomer, unassigned; (-)) [Example 139] | 0.13 | 6.0 | 100% | 
O=C1CCCC2=C1C(c1ccc(Cl)c(C(F)(F)F)c1)C1=C(CCS1(=O)=O)N2 (single isomer, unassigned; (-)) [Example 172, (−)-9-[4-chloro-3-(trifluoromethyl)vhenyl]-2,3,5,6,79-hexahydrothieno[3,2-b]quinolin-8(4H)-one, 1,1-dioxide] | 0.12 | 6.2 | 100% | 

Reference: patent US6593335B1, “Potassium channel openers” (Abbott Laboratories, priority 1997, dated 2003)
